“And” between values parts separate entries of the source, which are not always exact repeats. Identical values can stand only once. Inconclusive results and toxic doses are left out.
Tested on: P388 leukemia ip, CD2F1 mice, survival T/C
Assay: NCI In Vivo Anticancer Drug Screen. Data for tumor model P388 Leukemia (intraperitoneal) in CD2F1 (CDF1) mice
Conditions: endpoint: median survival time, higher = longer survival
How it was run: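 Mice carrying the transplanted tumor received test compound or vehicle. Survival was recorded in each group, and the value is the treated-group measurement divided by that of the vehicle-treated control group.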

[1] = dose: 50.0 mg/kg/injection, schedule: Q01DX005 (ip), vehicle: saline with Tween-80
[2] = dose: 100.0 mg/kg/injection, schedule: Q01DX005 (ip), vehicle: saline with Tween-80
[3] = dose: 200.0 mg/kg/injection, schedule: Q01DX005 (ip), vehicle: saline with Tween-80
[4] = dose: 25.0 mg/kg/injection, schedule: Q01DX009 (ip), vehicle: saline with Tween-80
[5] = dose: 50.0 mg/kg/injection, schedule: Q01DX009 (ip), vehicle: saline with Tween-80
[6] = dose: 100.0 mg/kg/injection, schedule: Q01DX009 (ip), vehicle: saline with Tween-80
[7] = dose: 200.0 mg/kg/injection, schedule: Q01DX009 (ip), vehicle: saline with Tween-80
[8] = dose: 60.0 mg/kg/injection, schedule: Q01DX005 (ip), vehicle: saline with Tween-80
[9] = dose: 120.0 mg/kg/injection, schedule: Q01DX005 (ip), vehicle: saline with Tween-80
[10] = dose: 240.0 mg/kg/injection, schedule: Q01DX005 (ip), vehicle: saline with Tween-80
[11] = dose: 100.0 mg/kg/injection, schedule: Q04DX003 (ip), vehicle: Klucel (hydroxypropylcellulose) (HPC)
[12] = dose: 200.0 mg/kg/injection, schedule: Q04DX003 (ip), vehicle: Klucel (hydroxypropylcellulose) (HPC)
[13] = dose: 100.0 mg/kg/injection, schedule: Q04DX002 (ip), vehicle: Klucel (hydroxypropylcellulose) (HPC)
[14] = dose: 50.0 mg/kg/injection, schedule: Q01DX009 (ip), vehicle: Klucel (hydroxypropylcellulose) (HPC)
[15] = dose: 100.0 mg/kg/injection, schedule: Q01DX009 (ip), vehicle: Klucel (hydroxypropylcellulose) (HPC)
[16] = dose: 12.5 mg/kg/injection, schedule: Q01DX009 (ip), vehicle: saline with Tween-80
[17] = dose: 25.0 mg/kg/injection, schedule: Q01DX005 (ip), vehicle: saline with Tween-80

## C/C(=N\N=C(/[Se])N1CCC(C)CC1)c1ccccn1
[1]
  T/C: 107 % of control
[2]
  T/C: 100 % of control
[3]
  T/C: 100 % of control

## C[As+](C)(C)SCCO
dose: 100.0 mg/kg/injection, schedule: Q04DX002 (ip), vehicle: saline
  T/C: 98 % of control
dose: 200.0 mg/kg/injection, schedule: Q04DX002 (ip), vehicle: saline
  T/C: 95 % of control
dose: 400.0 mg/kg/injection, schedule: Q04DX002 (ip), vehicle: saline
  T/C: 95 % of control

## COc1ccc(/C=C(/C#N)c2ccc(Cl)cc2)cc1
[4]
  T/C: 92 % of control
[5]
  T/C: 92 % of control
[6]
  T/C: 95 % of control
[7]
  T/C: 93 % of control

## CCCCN1C(=O)C(=O)N(c2ccccc2)C1=O
[8]
  T/C: 102 % of control
[9]
  T/C: 102 % of control
[10]
  T/C: 94 % of control

## O=C(O)CCCCCCCCCCOc1ccc(Cl)cc1
dose: 50.0 mg/kg/injection, schedule: Q04DX003 (ip), vehicle: Klucel (hydroxypropylcellulose) (HPC)
  T/C: 96 % of control
[11]
  T/C: 99 % of control
[12]
  T/C: 105 % of control
dose: 400.0 mg/kg/injection, schedule: Q04DX003 (ip), vehicle: Klucel (hydroxypropylcellulose) (HPC)
  T/C: 92 % of control

## O=C1c2ccccc2C(O)(C#Cc2ccccc2)c2cc(Cl)ccc21 (centres undefined)
[5]
  T/C: 106 % of control
[6]
  T/C: 102 % of control
[7]
  T/C: 90 % of control

## COc1cc(N=Nc2ccc([N+](=O)[O-])cc2)ccc1N(CCCl)CCCl
[5]
  T/C: 151 % of control
[6]
  T/C: 153 % of control and 156 % of control
[7]
  T/C: 168 % of control and 201 % of control

## CC(C)=CC1CC(=O)OC1(C)C (centres undefined)
dose: 12.5 mg/kg/injection, schedule: Q04DX002 (ip), vehicle: saline with Tween-80
  T/C: 98 % of control
dose: 25.0 mg/kg/injection, schedule: Q04DX002 (ip), vehicle: saline with Tween-80
  T/C: 104 % of control
dose: 50.0 mg/kg/injection, schedule: Q04DX002 (ip), vehicle: saline with Tween-80
  T/C: 100 % of control

## CCN(CC)C(=O)Nc1ccc(O)c(C(=O)O)c1
dose: 100.0 mg/kg/injection, schedule: Q01DX001 (ip), vehicle: saline with Tween-80
  T/C: 100 % of control
dose: 200.0 mg/kg/injection, schedule: Q01DX001 (ip), vehicle: saline with Tween-80
  T/C: 100 % of control
dose: 400.0 mg/kg/injection, schedule: Q01DX001 (ip), vehicle: saline with Tween-80
  T/C: 100 % of control

## CN1CCCC2Cc3ccccc3CC21 (centres undefined)
dose: 6.25 mg/kg/injection, schedule: Q04DX002 (ip), vehicle: Klucel (hydroxypropylcellulose) (HPC)
  T/C: 97 % of control
dose: 12.5 mg/kg/injection, schedule: Q04DX002 (ip), vehicle: Klucel (hydroxypropylcellulose) (HPC)
  T/C: 102 % of control
dose: 25.0 mg/kg/injection, schedule: Q04DX002 (ip), vehicle: Klucel (hydroxypropylcellulose) (HPC)
  T/C: 104 % of control
[13]
  T/C: 101 % of control

## O=c1[nH]c2c([N+](=O)[O-])cc(Cl)cc2nc1/C=C(\O)c1ccccc1
dose: 60.0 mg/kg/injection, schedule: Q01DX005 (ip), vehicle: Klucel (hydroxypropylcellulose) (HPC)
  T/C: 105 % of control
dose: 120.0 mg/kg/injection, schedule: Q01DX005 (ip), vehicle: Klucel (hydroxypropylcellulose) (HPC)
  T/C: 106 % of control

## COC(=O)C(Cl)Cc1cnc[nH]1 (centres undefined)
dose: 50.0 mg/kg/injection, schedule: Q01DX009 (ip), vehicle: saline
  T/C: 92 % of control
dose: 100.0 mg/kg/injection, schedule: Q01DX009 (ip), vehicle: saline
  T/C: 98 % of control
dose: 200.0 mg/kg/injection, schedule: Q01DX009 (ip), vehicle: saline
  T/C: 92 % of control

## Nc1nc(N)c(C(=O)SCc2ccccc2)nc1Cl
[14]
  T/C: 107 % of control
[15]
  T/C: 95 % of control
dose: 200.0 mg/kg/injection, schedule: Q01DX009 (ip), vehicle: Klucel (hydroxypropylcellulose) (HPC)
  T/C: 91 % of control

## O=C1c2ccccc2C(=O)C1(Br)C(Cl)c1ccccc1 (centres undefined)
[14]
  T/C: 90 % of control
[15]
  T/C: 95 % of control
[11]
  T/C: 104 % of control
[12]
  T/C: 100 % of control

## COc1cc(OC)cc(C2OC(N)=C(O)C2=O)c1 (centres undefined)
dose: 50.0 mg/kg/injection, schedule: Q01DX005 (ip), vehicle: Klucel (hydroxypropylcellulose) (HPC)
  T/C: 93 % of control
dose: 100.0 mg/kg/injection, schedule: Q01DX005 (ip), vehicle: Klucel (hydroxypropylcellulose) (HPC)
  T/C: 90 % of control
dose: 200.0 mg/kg/injection, schedule: Q01DX005 (ip), vehicle: Klucel (hydroxypropylcellulose) (HPC)
  T/C: 91 % of control

## c1ccc2sc(SSN3CC4CCC(CC4)C3)nc2c1
[16]
  T/C: 102 % of control
[4]
  T/C: 107 % of control
[5]
  T/C: 123 % of control
[6]
  T/C: 115 % of control

## CNC(=O)Nc1nc2ccc([N+](=O)[O-])cc2[nH]1
dose: 200.0 mg/kg/injection, schedule: Q04DX003 (oral), vehicle: saline with Tween-80
  T/C: 110 % of control
dose: 400.0 mg/kg/injection, schedule: Q04DX003 (oral), vehicle: saline with Tween-80
  T/C: 112 % of control
dose: 800.0 mg/kg/injection, schedule: Q04DX003 (oral), vehicle: saline with Tween-80
  T/C: 116 % of control and 121 % of control

## CCOC(=O)N(C)C(C)Cc1ccccc1 (centres undefined)
[5]
  T/C: 100 % of control
[6]
  T/C: 104 % of control
[7]
  T/C: 108 % of control

## COC(=O)C1CCc2c(cnn2-c2ccccn2)C1 (centres undefined)
[5]
  T/C: 97 % of control
[6]
  T/C: 101 % of control
[7]
  T/C: 100 % of control

## CN(CCc1nnnn1C)/N=C\C=N\N(C)CCc1nnnn1C
dose: 50.0 mg/kg/injection, schedule: Q01DX001 (ip), vehicle: Klucel (hydroxypropylcellulose) (HPC)
  T/C: 112 % of control
dose: 100.0 mg/kg/injection, schedule: Q01DX001 (ip), vehicle: Klucel (hydroxypropylcellulose) (HPC)
  T/C: 112 % of control
dose: 200.0 mg/kg/injection, schedule: Q01DX001 (ip), vehicle: Klucel (hydroxypropylcellulose) (HPC)
  T/C: 97 % of control

## O=C(N/N=C/c1ccco1)c1ccc(OCc2nc3ccccc3[nH]2)cc1
[17]
  T/C: 97 % of control
[1]
  T/C: 94 % of control
[2]
  T/C: 87 % of control
[3]
  T/C: 94 % of control

## N#CN(Cc1ccccc1)C(c1ccccc1)(c1ccccc1)c1ccccc1.[Br][Sn]([c]1ccccc1)([c]1ccccc1)[c]1ccccc1
dose: 1.5 mg/kg/injection, schedule: Q01DX005 (ip), vehicle: saline with Tween-80
  T/C: 98 % of control
dose: 3.0 mg/kg/injection, schedule: Q01DX005 (ip), vehicle: saline with Tween-80
  T/C: 100 % of control
dose: 6.0 mg/kg/injection, schedule: Q01DX005 (ip), vehicle: saline with Tween-80
  T/C: 101 % of control
dose: 6.25 mg/kg/injection, schedule: Q01DX005 (ip), vehicle: saline with Tween-80
  T/C: 94 % of control

## CC1CC(OC(=O)CSC#N)CC(C)(C)C1 (centres undefined)
dose: 12.5 mg/kg/injection, schedule: Q01DX005 (ip), vehicle: saline with Tween-80
  T/C: 104 % of control
[17]
  T/C: 101 % of control
[1]
  T/C: 101 % of control and 108 % of control

## Cc1ccccc1-c1cc2ccccc2c(N)n1
dose: 6.25 mg/kg/injection, schedule: Q01DX009 (ip), vehicle: saline with Tween-80
  T/C: 118 % of control
[16]
  T/C: 99 % of control

## C=C(C)c1nc(N)nc(-c2ccc([N+](=O)[O-])cc2)n1
[13]
  T/C: 88 % of control
dose: 200.0 mg/kg/injection, schedule: Q04DX002 (ip), vehicle: Klucel (hydroxypropylcellulose) (HPC)
  T/C: 88 % of control
dose: 400.0 mg/kg/injection, schedule: Q04DX002 (ip), vehicle: Klucel (hydroxypropylcellulose) (HPC)
  T/C: 88 % of control

## COc1cc(-c2nn3c(C)c(-c4ccccc4)nc3s2)cc(OC)c1OC
[8]
  T/C: 101 % of control
[9]
  T/C: 92 % of control
[10]
  T/C: 102 % of control

## COC(=O)c1cccc(COc2ccc([N+](=O)[O-])cc2Cl)c1
[6]
  T/C: 100 % of control
[7]
  T/C: 100 % of control
dose: 400.0 mg/kg/injection, schedule: Q01DX009 (ip), vehicle: saline with Tween-80
  T/C: 110 % of control

## NC(=O)NC1CCCCCCC1
dose: 100.0 mg/kg/injection, schedule: Q04DX003 (ip), vehicle: saline with Tween-80
  T/C: 100 % of control
dose: 200.0 mg/kg/injection, schedule: Q04DX003 (ip), vehicle: saline with Tween-80
  T/C: 109 % of control
dose: 400.0 mg/kg/injection, schedule: Q04DX003 (ip), vehicle: saline with Tween-80
  T/C: 95 % of control

## CCCCn1c(C)nc2ccccc21
[1]
  T/C: 100 % of control
[2]
  T/C: 100 % of control

## COC1=C(Br)C(=O)N/C1=C(\OC)c1ccccc1
[8]
  T/C: 89 % of control
[9]
  T/C: 98 % of control
[10]
  T/C: 89 % of control
